According to patent US6300327A, “Compositions and methods for potentiation of neurotrophin activity” (The University of Southern California, priority 1997, dated 2001):
pKi: −log10 of the molar value. “Also recorded” adds a separate entry of the source. Where two headings read alike, the source gives them in different places.

Assays:
[1] = system: trkB; experiment: Cell-free tyrosine phosphorylation of recombinant human trkB expressed in Sf9 insect cells; assay type: biochemical; settings: 10 μM K-252b
Method: Human trk and trkB were expressed in Sf9 insect cells transfected using a baculovirus system. The trk proteins were immunoprecipitated as described above and the precipitates were incubated with 20 μCi [gamma-^32 P]ATP, 10 mM MnCl2, 20 mM Tris, pH 7.4, for 5 min at 25° C. in the presence of increasing amounts of K-252b or control solution. Phosphorylated proteins were analyzed as described for FIG. 4B. The tyrosine kinase activity of the trk and trkB proteins was activated in the absence of ligand, a common observation for receptor tyrosine kinase produced in the baculovirus system. The trk and trkB proteins were 25% pure as assayed by SDS-PAGE.
K-252b interacts directly with the trk and trkB protein. Human trk and trkB were expressed in Sf9 insect cells transfected using a baculovirus system. trk proteins were immunoprecipitated and the precipitates were incubated with [gamma^32 P]ATP in the presence of increasing amounts of K-252b or control solution.

[2] = system: midbrain dopaminergic neurons (cultures of ventral mesencephalon); experiment: Dopamine uptake in primary cultures of fetal rat ventral mesencephalon; assay type: cell-based; settings: for activity at 5 µM: Rattus norvegicus, Neuron; for Dopamine uptake, Mean ± SEM: n=4
Method: Primary cultures of fetal rat brain septal and mesencephalic cells were prepared in a heretofore known manner [Knusel et al., supra]. Briefly, defined areas were dissected from fetal rat brains (Wistar, E15-16, Charles River, Mass.). The septal area contained the cholinergic neurons from septum, diagonal band of Broca and nucleus basalis. The ventral mesencephalon containing the dopaminergic neurons of the substantia nigra and the ventral tegmental area was dissected and dissociated mechanically. The cells were plated in 16 mm multiwell plates precoated with polyethyleneimine (1 mg/ml, 37° C., overnight), containing 0.5 ml modified L-15 medium supplemented with 5% heat inactivated horse serum and 0.5% heat inactivated fetal calf serum. Modified L-15 was prepared [Knusel et al., "Selective and Nonselective Stimulation of Central Cholinergic and dopaminergic Development in vitro by Nerve Growth Factor, Basic Fibroblast Growth Factor, Epidermal Growth Factor, Insulin and the Insulin-like Growth Factors I and II," J. Neurosci. 10:558-570 (1990)] by adding various amino acids, vitamins, antibiotics, glucose and NaHCO3 to Leibovitz's L-15 medium (Gibco, Grand Island, N.Y.). Plating densities were 4×10^5 cells/cm^2 for basal forebrain cultures and 3×10^5 cells/cm^2 for mesencephalic cultures. Of these cells, 0.5 to 1% were cholinergic or dopaminergic, respectively. Growth factors were typically added on the second day of culture and the cells were grown for 5 or more days. For ChAT assays tissue was homogenized in 250 μl of 50 mM Tris-HCl buffer, pH 6.0 with 0.3% Triton X-100. [1-^14 C]acetylcoenzyme A (NEN) concentration was 20 μM and specific activity 4.09 Ci/mol. To measure dopamine uptake, cultures were preincubated for 5 min at 37° C. with 250 μl incubation solution (5 mM glucose, 1 mM ascorbic acid in PBS) containing 1 mM pargyline. [^3 H]dopamine (37 Ci/mmol) was then added to give a final concentration of 50 nM and the cultures were incubated for another 15 minutes. Blanks were obtained by incubating cells at 0° C.
In Table 1, dopamine uptake is given as fmol/min/culture dish. Cultures were grown in 24-well plates for 7 days in L-15 medium with 5% horse and 0.5% fetal bovine serum and treated with growth factors and K-252b from the second day of culture. rhBDNF, 200 ng/ml; des-IGF-1, 1 μg/ml; n=4; *different from respective control group, p <0.01 (Student's t-test). The apparent difference between control cultures grown in presence and absence of K-252b was statistically not significant. The experiment shown is a representative case of a total of 5 independent experiments.

[3] = biological target: cGMP-dependent protein kinase; settings: in vitro assay systems; cited from earlier work
[4] = system: phospholipase C gamma-1; experiment: Tyrosine phosphorylation of phospholipase C gamma-1 and other cellular proteins in PC12 cells; assay type: cell-based
Method: To measure the status of trk tyrosine phosphorylation, PC12 cells were lysed and immunoprecipitated with anti-trk serum. The trk proteins were subjected to 7.5% SDS-PAGE and analyzed by immunoblotting with anti-phosphotyrosine antibodies as described in detail in the literature [Kaplan, D. R. et al., "PDGF beta receptor stimulates tyrosine phosphorylation of GAP and association of GAP with a signaling complex," Cell 61:125-133 (1990)]. Tyrosine phosphorylation of cellular proteins was assayed by probing Western blots of lysates of PC12 cells incubated with K-252b and NT-3 or NGF with anti-phosphotyrosine antibodies. Phospholipase C gammal was identified in these blots as described elsewhere [Vetter, M.L. et al., "Nerve growth factor rapidly stimulates tyrosine phosphorylation of phospholipase C-gammal by a kinase activity associated with the product of trk protooncogene," Proc. Natl Acad. Sci. USA 88:5650-5654 (1991)].

[5] = system: neurotrophin activity; experiment: Neurotrophin potentiation in vitro (overall statements); assay type: cell-based
[6] = system: epidermal growth factor and basic fibroblast growth factor receptors; experiment: Receptor tyrosine phosphorylation induced by epidermal growth factor and basic fibroblast growth factor in PC12 cells; assay type: cell-based; settings: K-252b
[7] = system: chick dorsal root ganglia neurons (DRG); experiment: Survival of dissociated chick DRG neurons (embryonic day 9); assay type: cell-based
Method: DRGs of embryonic day 9 chicks were dissected and dissociated using enzymatic and mechanical procedures as described in the literature [Rosenthal, A. et al., "Primary Structure and Biological Activity of a Novel Human Neurotrophic Factor," Neuron 4:767-773 (1990)]. 1800 neurons were plated per well in 96-well tissue culture plates pretreated with polyornithine (500 μg/ml) and laminin (10 μg/ml). Cells were incubated for 48 hrs with or without growth factors and the indicated concentrations of K-252b. Phase-bright cells with elaborated neurites 5× the diameter of the cell bodies were then counted.
Similar to the findings obtained in primary cultures of brain cholinergic neurons, low concentration of K-252b (50 nM) potentiated the survival promoting action of a maximally effective concentration of NT-3 (FIG. 3). Survival of dissociated chick DRG neurons in presence of rhNGF (100 ng/ml) or rhNT-3 (100 ng/ml) and K-252b is illustrated in FIG. 3; concentrations on the horizontal axis are for K-252b. The columns represent means +SEMs. […] High concentrations of K-252b (10 μM) inhibited the action of NGF on sensory neurons, as found for cholinergic neurons (FIG. 3).

CC12OC(CC1(O)C(=O)O)n1c3ccccc3c3c4c(c5c6ccccc6n2c5c31)CNC4=O (centres unmarked) [K-252b]
effect on trkB tyrosine phosphorylation, cell-free system [1]: completely prevented
effect on increase in dopamine uptake mediated by BDNF ([2]; K-252b 5 μM (Table 1)): prevented the increase in dopamine uptake; also recorded: inhibits the stimulatory action
activity at 5 µM ([2]; read-out: Dopamine uptake, % of Control, With K-252b (5 μM) + des-IGF-1 1 μg/ml): 201%
activity at 5 µM ([2]; read-out: Dopamine uptake, % of Control, With K-252b (5 μM) + rhBDNF 200 ng/ml): 119%
Dopamine uptake, Mean ± SEM ([2]; With K-252b (5 μM) + des-IGF-1 1 μg/ml): 22.9 ± 1.0 fmol/min/culture dish
Dopamine uptake, Mean ± SEM ([2]; With K-252b (5 μM) + rhBDNF 200 ng/ml): 13.6 ± 0.7 fmol/min/culture dish
Dopamine uptake, Mean ± SEM ([2]; With K-252b (5 μM), no growth factor (Control)): 11.4 ± 0.2 fmol/min/culture dish
effect on stimulatory action of bFGF and insulin on dopamine uptake ([2]; bFGF and insulin): does not inhibit
effect on stimulatory action of des-IGF-1 on dopamine uptake ([2]; des-IGF-1 1 μg/ml): not to inhibit
effect on action of BDNF on dopaminergic neurons ([2]; low concentrations of K-252b): did not potentiate
pKi [3]: 7.00 to 8.00
NT-3 mediated tyrosine phosphorylation of phospholipase C gamma-1 and other proteins ([4]; 50 nM K-252b + NT-3): enhanced
tyrosine phosphorylation of phospholipase C gamma-1 and other proteins in NGF treated cells ([4]; K-252b + NGF): inhibited
effect on actions of NT-3 ([5]; nM concentrations): selectively potentiates
effect on actions of all neurotrophins ([5]; μM concentrations): inhibits the actions of all neurotrophins
effect on receptor responses induced by epidermal growth factor and basic fibroblast growth factor [6]: failed to influence
effect on survival mediated by NGF or BDNF ([7]; 50 nM K-252b): failed to influence survival
number of neurons supported by combination with NT-3 ([7]; 50 nM K-252b + NT-3): identical to that supported by NGF alone
effect on survival promoting action of NT-3 ([7]; 50 nM K-252b, rhNT-3 100 ng/ml): potentiated
effect on action of NGF on sensory neurons ([7]; 10 μM K-252b, rhNGF 100 ng/ml): inhibited
